System: LPS-stimulated J774 macrophages (TSPO)
Assay: In vitro J774 murine macrophage uptake studies (fluorescence microscopy, with or without blocking)
Format: cell-based
Details: 40 nM probe, 1 hour of incubation
Description: FIG. 4 is a series of photomicrographs (A-I) of J774 macrophages that were cultured in 8 well chamber slides to 80% confluence. LPS was then added to each well for 24 hours to stimulate the cells. […] The cells were returned to the incubator for either 1 hour or 24 hours. The solutions were then removed, the nuclei were labeled with Hoechst 33342 and the cells were briefly washed before mounting and viewing under a fluorescence microscope.
In vitro J774 murine macrophage uptake studies. The immortalized J774 murine macrophage-like cell line was cultured in RPMI1640+20% FBS+1% penicillin+ streptomycin media in 8-well chamber slides (Fisher Scientific) to approximately 80% confluence. The cells were then stimulated with 1 ng/mL of LPS (Sigma, E. coli 055:B5) for 24 hours prior to addition of the probes of the present invention to 40 nM final concentration. […] The cells were exposed to the fluorescent probes and blocking compounds for either 1 hour or 24 hours prior to exposing to 1 ng/mL of Hoechst 33342 dye (Invitrogen), followed by washing twice briefly with PBS, pH 7.5. The chambers were then removed and the slide mounted with Dako Cytomation aqueous mounting media and a glass coverslip. The cells were visualized using a Nikon 80i upright epifluorescence microscope equipped with a Nikon DS-QilMc darkfield CCD camera and processed using Nikon Image Software on an adjacent workstation. The dyes were excited using either a Nikon Intensilight C-HGFI lamp (IRDye680 and Hoechst) or a Sutter Instruments Co. (Novato, Calif.) LB/LB-30 xenon lamp (IRDye800).
J774 Cell Uptake Studies. J774 macrophages were cultured in 8 well chamber slides to 80% confluence. LPS was then added to each well for 24 hours to stimulate the cells. […] The cells were returned to the incubator for either 1 hour or 24 hours. The solutions were then removed, the nuclei were labeled with Hoechst 33342 and the cells were briefly washed before mounting and viewing under a fluorescence microscope. […] The tracer localization for both analogs is perinuclear and granular in appearance and is consistent with the gross distribution pattern of TSPO expression in other mononuclear cell-derived lines.

In the case of `CCN(CC)C(=O)Cc1c(-c2ccc(OCCNC(=O)CCCCC[N+]3=C(/C=C/C4=C(Oc5ccc(S(=O)(=O)O)cc5)C(=C/C=C5/N(CCCCS(=O)(=O)O)c6ccc(S(=O)(=O)O)cc6C5(C)C)/CCC4)C(C)(C)c4cc(S(=O)(=O)[O-])ccc43)cc2)nn2c(C)cc(C)nc12` [DPA-713-IRDye800CW, 1-(6-(2-(4-(3-(2-(diethylamino)-2-oxoethyl)-5,7-dimethylpyrazolo[1,5-a]pyrimidin-2-yl)phenoxy)ethylamino)-6-oxohexyl)-2-((E)-2-((E)-3-((E)-2-(3,3-dimethyl-5-sulfo-1-(4-sulfobutyl)indolin-2-ylidene)ethylidene)-2-(4-sulfophenoxyl)cyclohex-1-enyl)vinyl)-3,3-dimethyl-3H-indolium-5-sulfonate], the “Observable fluorescence signal (uptake)” value is reported as “almost no observable signal”.
